Data published in PubChem BioAssay (NCI).
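How tested: cells in 96-well plates exposed to compound for 48 hours at five concentrations. At the GI50, growth is halved. TGI denotes the concentration required for complete inhibition of growth.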

Key:
Experiment in all cases: NCI tumour cell line growth inhibition, 48 h
NCI-H226 lung = tested on: NCI-H226 lung
NCI-H23 lung = tested on: NCI-H23 lung
U251 CNS = tested on: U251 CNS
IGROV1 ovarian = tested on: IGROV1 ovarian
HOP-62 NSCLC = tested on: HOP-62 NSCLC
HCT-116 colon = tested on: HCT-116 colon
SW-620 colon = tested on: SW-620 colon
A549 NSCLC = tested on: A549 NSCLC
SF-539 CNS = tested on: SF-539 CNS
DU-145 prostate = tested on: DU-145 prostate

Compound	TGI (NCI-H226 lung)	TGI (NCI-H23 lung)	TGI (U251 CNS)	TGI (IGROV1 ovarian)	TGI (HOP-62 NSCLC)	TGI (HCT-116 colon)	TGI (SW-620 colon)	TGI (A549 NSCLC)	TGI (SF-539 CNS)	GI50 (NCI-H226 lung)	GI50 (NCI-H23 lung)	GI50 (U251 CNS)	GI50 (IGROV1 ovarian)	GI50 (HOP-62 NSCLC)	GI50 (SW-620 colon)	GI50 (A549 NSCLC)	GI50 (DU-145 prostate)	TGI (DU-145 prostate)	GI50 (SF-539 CNS)	GI50 (HCT-116 colon)
CCOC(=O)C1C(=O)c2cccc(OC)c2C2COC(=O)N12 (stereo unspecified)	> 100 µM	> 100 µM	> 100 µM	> 100 µM	> 100 µM	> 100 µM	> 100 µM	> 100 µM	> 100 µM											
COn1cc(C(=O)N=C(SC)SC)c2ccccc21	51.2 µM	60.3 µM	70.6 µM	55.5 µM	51.4 µM		> 100 µM	87.6 µM	43.4 µM	14.1 µM	27.2 µM	22.3 µM	11.8 µM	17.6 µM	34.8 µM	23.9 µM	30.9 µM	> 100 µM	18.7 µM	
N#CC12CC3(CCC1CCC1(C2)OCCO1)OCCO3 (stereo unspecified)	> 100 µM	> 100 µM	> 100 µM	> 100 µM	> 100 µM	> 100 µM	> 100 µM	> 100 µM	> 100 µM											
CC(=O)Nc1ccccc1S(=O)c1ccccc1 (stereo unspecified)	> 100 µM	> 100 µM	> 100 µM	> 100 µM	> 100 µM	> 100 µM	> 100 µM	> 100 µM	> 100 µM											
COC(=O)C(C(=O)C(=O)Nc1ccc(N)cc1[N+](=O)[O-])c1nc2ccc(Cl)cc2[nH]c1=O (stereo unspecified)	> 100 µM	> 100 µM		> 100 µM	> 100 µM	> 100 µM	> 100 µM	> 100 µM	> 100 µM											
CC(C)Cn1cnc2c(SCc3ccccn3)nc(N)nc21	> 100 µM	> 100 µM	> 100 µM	> 100 µM	> 100 µM	> 100 µM	> 100 µM	> 100 µM										> 100 µM		
O=C(OCc1ccccc1)c1ccccc1-c1c2ccc(=O)cc-2oc2cc(OCc3ccccc3)ccc12	32.2 µM	49.6 µM	13.9 µM	44.3 µM		57.7 µM	> 100 µM	82.2 µM	28.9 µM											
CC1=C(C(=O)NCc2ccccc2)C(c2ccccc2O)C(C(=O)NCc2ccccc2)=C(C)N1	30.8 µM	34.1 µM	29.5 µM	39 µM	39.5 µM	28.5 µM	32.3 µM	44.6 µM	38.5 µM											
CCCCCCC(=O)CC(=O)C(=O)Nc1ccccc1C	> 100 µM	> 100 µM	> 100 µM	> 100 µM	> 100 µM	> 100 µM	> 59.4 µM	> 100 µM	> 100 µM											
C/C(=N\NS(=O)(=O)c1ccccc1)c1ccc[n+]([O-])n1		> 100 µM	> 100 µM	> 100 µM	> 100 µM	> 100 µM	> 100 µM	> 100 µM	> 100 µM											
CCc1cccc(CC)c1NC(=O)C1=CNC(C)=C(C(=O)Nc2c(CC)cccc2CC)C1c1ccc(O)c(OC)c1 (stereo unspecified)	89.7 µM	> 100 µM	> 100 µM	> 100 µM	86.8 µM		> 100 µM	> 100 µM	51.3 µM											
CCN(CC)c1ccc(N=C2C=CC(=C(C#N)C#N)c3ccccc32)c(C)c1		3.33 µM	3.44 µM	8.86 µM	6.25 µM	5.8 µM		5.33 µM												
O=S1Cc2ccccc2CSS1 (stereo unspecified)	55.4 µM	28.1 µM	31.9 µM	> 100 µM		28.3 µM	27.2 µM	46.7 µM	29.8 µM											
CC(=O)CC(=O)ON(C)C(=O)Cc1ccccc1	> 100 µM	> 100 µM	> 100 µM	> 100 µM	> 100 µM	> 100 µM	> 100 µM	> 100 µM	> 100 µM											
COc1c(OC2OC(CO)C(O)C(O)C2O)cc2c(c1OC)-c1ccc(OC)c(=O)cc1[C@@H](NC(C)=O)CC2 (stereo partly specified)	> 100 µM	> 100 µM	> 100 µM	> 100 µM	> 100 µM	> 100 µM	> 100 µM	> 100 µM	> 100 µM											
NNC(=O)N/N=C1/C(=O)N(c2ccc(Cl)c(Cl)c2)C(=O)C(=O)C1c1nc2ccccc2o1 (stereo unspecified)	> 100 µM	> 100 µM	> 100 µM	> 100 µM	> 100 µM	> 100 µM	> 100 µM	> 100 µM	> 100 µM											
Cc1c(C(=O)Nc2ccc(Cl)cc2)nc(N)nc1-c1cccc(Cl)c1	> 100 µM	> 100 µM	> 100 µM	> 100 µM	> 100 µM	> 100 µM	> 100 µM	> 100 µM	> 100 µM											
CCCNC(=O)Nc1ccc2c(c1)Cc1cc(N(CCCl)CCCl)ccc1-2		> 100 µM	> 100 µM	50.6 µM	> 100 µM	> 100 µM	> 100 µM	> 100 µM	66.2 µM									60.9 µM		
C=C1C(OCCO)OC2O[C@]3(C)CCC4[C@H](C)CCC1C24OO3 (stereo partly specified)		53.6 µM	> 100 µM	34.9 µM	> 100 µM	> 100 µM	> 100 µM	> 100 µM	> 100 µM		7.46 µM	35 µM	12.3 µM	52.7 µM	10.9 µM	28.4 µM	36.3 µM	> 100 µM	36.6 µM	8.69 µM
COc1ccc([Se]c2ccc(OC)cc2)cc1	93.5 µM	> 100 µM	> 100 µM	> 100 µM	> 100 µM	> 100 µM	> 100 µM	> 100 µM	> 100 µM											
NCCNc1ncnc2ccc(Cl)cc12	> 100 µM	> 100 µM	> 100 µM	> 100 µM	> 100 µM	> 100 µM	> 100 µM	> 100 µM										> 100 µM		
C=C1CC(CC(=O)C(C)CC2CC(=C)C(=O)O2)OC1=O (stereo unspecified)		35.8 µM	> 100 µM	> 100 µM	> 100 µM	24.6 µM	24.2 µM	> 100 µM	37.7 µM											
CC(=O)OC1(C#N)CC2OC1C1NC21 (stereo unspecified)	> 100 µM	> 100 µM	> 100 µM	> 100 µM	> 100 µM	> 100 µM	> 100 µM	> 100 µM	> 100 µM											
